Data as given in patent publication US12540131B2 (Merck Sharp & Dohme LLC, priority 2019, dated 2026).

These compounds were tested against GST tagged truncated human mutant G2019S LRRK2 (Homo sapiens (Human), UniProt Q5S007, G2019S) (assay: LRRK2 Km ATP LanthaScreen Assay). Conditions: G2019S LRRK2, 134 μM ATP (Km ATP), mean values.
Assay type: biochemical
Summary of the method: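 Enzyme (GST-tagged, truncated) was preincubated with compound for 15 min at RT in 50 mM Tris pH 8.5, 10 mM MgCl2, 0.01% Brij-35, 1 mM EGTA, 2 mM DTT and 0.05 mM orthovanadate. Fluorescein-LRRKtide and 134 μM ATP (Km) were then added for 90 min. EDTA and Tb-anti-pERM antibody stopped the reaction; the TR-FRET 520/495 ratio gave 4-parameter IC50s, reported as mean pIC50.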

Chain of GST tagged truncated human mutant G2019S LRRK2 (Q5S007 970-2527 G2019S): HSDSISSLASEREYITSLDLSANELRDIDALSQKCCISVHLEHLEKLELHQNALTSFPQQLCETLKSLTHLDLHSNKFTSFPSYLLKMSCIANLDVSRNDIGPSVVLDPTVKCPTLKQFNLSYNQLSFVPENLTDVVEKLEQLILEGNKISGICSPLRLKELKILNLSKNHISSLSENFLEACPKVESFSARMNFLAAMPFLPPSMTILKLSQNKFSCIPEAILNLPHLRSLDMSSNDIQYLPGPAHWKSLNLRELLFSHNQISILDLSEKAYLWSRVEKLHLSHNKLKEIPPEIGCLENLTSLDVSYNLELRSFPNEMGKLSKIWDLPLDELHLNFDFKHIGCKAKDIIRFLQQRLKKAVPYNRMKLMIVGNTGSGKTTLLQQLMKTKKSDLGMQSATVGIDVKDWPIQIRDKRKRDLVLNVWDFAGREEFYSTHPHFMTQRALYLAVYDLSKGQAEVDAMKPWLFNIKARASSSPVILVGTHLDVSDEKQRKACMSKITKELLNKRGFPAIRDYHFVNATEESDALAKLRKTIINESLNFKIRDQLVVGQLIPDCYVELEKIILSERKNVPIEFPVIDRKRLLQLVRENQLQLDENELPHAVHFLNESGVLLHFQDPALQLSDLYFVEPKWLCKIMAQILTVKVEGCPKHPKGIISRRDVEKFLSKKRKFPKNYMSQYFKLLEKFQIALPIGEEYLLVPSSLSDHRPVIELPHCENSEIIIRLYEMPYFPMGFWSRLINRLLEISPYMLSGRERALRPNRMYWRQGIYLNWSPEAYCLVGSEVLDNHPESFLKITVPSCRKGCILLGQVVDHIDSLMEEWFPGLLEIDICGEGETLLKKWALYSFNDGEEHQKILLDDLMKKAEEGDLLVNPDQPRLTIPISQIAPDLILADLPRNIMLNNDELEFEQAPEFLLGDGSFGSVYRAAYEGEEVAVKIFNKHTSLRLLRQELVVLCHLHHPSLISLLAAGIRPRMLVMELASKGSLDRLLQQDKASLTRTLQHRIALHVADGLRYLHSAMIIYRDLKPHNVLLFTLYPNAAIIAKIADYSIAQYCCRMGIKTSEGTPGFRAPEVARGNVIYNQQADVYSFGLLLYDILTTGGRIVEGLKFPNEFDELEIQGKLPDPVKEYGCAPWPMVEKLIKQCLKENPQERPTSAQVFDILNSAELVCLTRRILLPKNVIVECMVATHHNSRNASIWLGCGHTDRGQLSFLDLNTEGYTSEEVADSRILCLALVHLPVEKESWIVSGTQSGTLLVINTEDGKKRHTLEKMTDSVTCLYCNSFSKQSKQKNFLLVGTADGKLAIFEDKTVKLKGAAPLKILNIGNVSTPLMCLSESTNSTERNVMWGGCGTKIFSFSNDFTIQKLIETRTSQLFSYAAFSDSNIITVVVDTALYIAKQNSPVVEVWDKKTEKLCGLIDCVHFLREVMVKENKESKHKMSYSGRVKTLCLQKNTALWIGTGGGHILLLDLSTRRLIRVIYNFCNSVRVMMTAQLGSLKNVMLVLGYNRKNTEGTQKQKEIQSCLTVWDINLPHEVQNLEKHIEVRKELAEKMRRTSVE

SMILES	LRRK2 pIC50
CC(n1ncc(Nc2ncc3cc(Cl)c([C@@H]4CCN(C5COC5)C[C@H]4F)cc3n2)c1Cl)C(C)(C)O (single isomer, unassigned) [Ex-4.69, (R)(3S,4S) or (R)(3R,4R) or (S)(3S,4S) or (S)(3R,4R) 3-[5-chloro-4-({6-chloro-7-[3-fluoro-1-(oxetan-3-yl)piperidin-4-yl]quinazolin-2-yl}amino)-1H-pyrazol-1-yl]-2-methylbutan-2-ol]	9.13
CC1OCC1N1CC[C@@H](c2cc3nc(Nc4cnn(CC(C)(C)O)c4Cl)ncc3cc2Cl)[C@H](F)C1 (single isomer, unassigned) [Ex-4.70, (3S,4S)(2R,3R) or (3S,4S)(2S,3S) or (3R,4R)(2R,3R) or (3R,4R)(2S,3S) or (3R,4R)(2S,3R) or (3R,4R)(2R,3S) or (3S,4S)(2S,3R) or (3S,4S)(2R,3S) 1-[5-chloro-4-({6-chloro-7-[3-fluoro-1-(2-methyloxetan-3-yl)piperidin-4-yl]quinazolin-2-yl}amino)-1H-pyrazol-1-yl]-2-methylpropan-2-ol]	7.92
CC1OCC1N1CC[C@@H](c2cc3nc(Nc4cnn(CC(C)(C)O)c4Cl)ncc3cc2Cl)[C@H](F)C1 (single isomer, unassigned) [Ex-4.71, (3S,4S)(2R,3R) or (3S,4S)(2S,3S) or (3R,4R)(2R,3R) or (3R,4R)(2S,3S) or (3R,4R)(2S,3R) or (3R,4R)(2R,3S) or (3S,4S)(2S,3R) or (3S,4S)(2R,3S) 1-[5-chloro-4-({6-chloro-7-[3-fluoro-1-(2-methyloxetan-3-yl)piperidin-4-yl]quinazolin-2-yl}amino)-1H-pyrazol-1-yl]-2-methylpropan-2-ol]	7.74
CC1OCC1N1CC[C@H](c2cc3nc(Nc4cnn(CC(C)(C)O)c4Cl)ncc3cc2Cl)[C@@H](F)C1 (single isomer, unassigned) [Ex-4.73, (3S,4S)(2R,3R) or (3S,4S)(2S,3S) or (3R,4R)(2R,3R) or (3R,4R)(2S,3S) or (3R,4R)(2S,3R) or (3R,4R)(2R,3S) or (3S,4S)(2S,3R) or (3S,4S)(2R,3S) 1-[5-chloro-4-({6-chloro-7-[3-fluoro-1-(2-methyloxetan-3-yl)piperidin-4-yl]quinazolin-2-yl}amino)-1H-pyrazol-1-yl]-2-methylpropan-2-ol]	9.13
CC1OCC1N1CC[C@H](c2cc3nc(Nc4cnn(CC(C)(C)O)c4Cl)ncc3cc2Cl)[C@@H](F)C1 (single isomer, unassigned) [Ex-4.74, (3S,4S)(2R,3R) or (3S,4S)(2S,3S) or (3R,4R)(2R,3R) or (3R,4R)(2S,3S) or (3R,4R)(2S,3R) or (3R,4R)(2R,3S) or (3S,4S)(2S,3R) or (3S,4S)(2R,3S) 1-[5-chloro-4-({6-chloro-7-[3-fluoro-1-(2-methyloxetan-3-yl)piperidin-4-yl]quinazolin-2-yl}amino)-1H-pyrazol-1-yl]-2-methylpropan-2-ol]	9.19
CC1OCC1N1CCC(c2cc3nc(Nc4cnn(CC(C)(C)O)c4Cl)ncc3cc2Cl)CC1 (single isomer, unassigned) [Ex-4.75, (2R,3R) or (2S,3S) or (2S,3R) or (2R,3S) 1-[5-chloro-4-({6-chloro-7-[1-(2-methyloxetan-3-yl)piperidin-4-yl]quinazolin-2-yl}amino)-1H-pyrazol-1-yl]-2-methylpropan-2-ol]	8.14
CC1OCC1N1CCC(c2cc3nc(Nc4cnn(CC(C)(C)O)c4Cl)ncc3cc2Cl)CC1 (single isomer, unassigned) [Ex-4.76, (2R,3R) or (2S,3S) or (2S,3R) or (2R,3S) 1-[5-chloro-4-({6-chloro-7-[1-(2-methyloxetan-3-yl)piperidin-4-yl]quinazolin-2-yl}amino)-1H-pyrazol-1-yl]-2-methylpropan-2-ol]	>9.20
Cc1cc2cnc(Nc3cnn(CC(C)(C)O)c3Cl)nc2cc1[C@@H]1CCN(C2COC2)C[C@H]1F (single isomer, unassigned) [Ex-4.81, (3S,4S) or (3R,4R) 1-[5-chloro-4-({7-[3-fluoro-1-(oxetan-3-yl)piperidin-4-yl]-6-methylquinazolin-2-yl}amino)-1H-pyrazol-1-yl]-2-methylpropan-2-ol]	9.13
Cc1cc2cnc(Nc3cnn(C4CC4)c3Cl)nc2cc1[C@@H]1CCN(C2COC2)C[C@H]1F (single isomer, unassigned) [Ex-4.82, (3S,4S) or (3R,4R) N-(5-chloro-1-cyclopropyl-1H-pyrazol-4-yl)-7-[3-fluoro-1-(oxetan-3-yl)piperidin-4-yl]-6-methylquinazolin-2-amine]	>9.20
Cc1cc2cnc(Nc3cnn(CC(C)(C)O)c3Cl)nc2cc1[C@H]1CCN(C2COC2)C[C@@H]1F (single isomer, unassigned) [Ex-4.83, (3S,4S) or (3R,4R) 1-[5-chloro-4-({7-[3-fluoro-1-(oxetan-3-yl)piperidin-4-yl]-6-methylquinazolin-2-yl}amino)-1H-pyrazol-1-yl]-2-methylpropan-2-ol]	9.14
Cc1cc2cnc(Nc3cnn(C4CC4)c3Cl)nc2cc1[C@H]1CCN(C2COC2)C[C@@H]1F (single isomer, unassigned) [Ex-4.85, (3S,4S) or (3R,4R) N-(5-chloro-1-cyclopropyl-1H-pyrazol-4-yl)-7-[3-fluoro-1-(oxetan-3-yl)piperidin-4-yl]-6-methylquinazolin-2-amine]	8.76
CC1(n2ncc(Nc3ncc4cc(Cl)c([C@@H]5CCNC[C@H]5F)cc4n3)c2Cl)CC1 (single isomer, unassigned) [Ex-4.91, (3S,4S) or (3R,4R) 6-chloro-N-[5-chloro-1-(1-methylcyclopropyl)-1H-pyrazol-4-yl]-7-(3-fluoropiperidin-4-yl)quinazolin-2-amine]	>9.20
CC1(n2ncc(Nc3ncc4cc(Cl)c([C@H]5CCNC[C@@H]5F)cc4n3)c2Cl)CC1 (single isomer, unassigned) [Ex-4.92, (3S,4S) or (3R,4R) 6-chloro-N-[5-chloro-1-(1-methylcyclopropyl)-1H-pyrazol-4-yl]-7-(3-fluoropiperidin-4-yl)quinazolin-2-amine]	>9.20
CC1(N2CC[C@@H](c3cc4nc(Nc5cnn(C6CC6)c5Cl)ncc4cc3Cl)[C@H](F)C2)COC1 (single isomer, unassigned) [Ex-4.99, (3S,4S) or (3R,4R) 6-chloro-N-(5-chloro-1-cyclopropyl-1H-pyrazol-4-yl)-7-[3-fluoro-1-(3-methyloxetan-3-yl)piperidin-4-yl]quinazolin-2-amine]	8.01
N#CC1COCC1N1CCC(c2cc3nc(Nc4cnn(C5CC5)c4Cl)ncc3cc2Cl)CC1 (single isomer, unassigned) [Ex-4.102, (3S,4S) or (3R,4R) or (3S,4R) or (3R,4S) 4-(4-(6-chloro-2-((5-chloro-1-cyclopropyl-1H-pyrazol-4-yl)amino)quinazolin-7-yl)piperidin-1-yl)tetrahydrofuran-3-carbonitrile]	>9.20
N#CC1COCC1N1CCC(c2cc3nc(Nc4cnn(C5CC5)c4Cl)ncc3cc2Cl)CC1 (single isomer, unassigned) [Ex-4.103, (3S,4S) or (3R,4R) or (3S,4R) or (3R,4S) 4-(4-(6-chloro-2-((5-chloro-1-cyclopropyl-1H-pyrazol-4-yl)amino)quinazolin-7-yl)piperidin-1-yl)tetrahydrofuran-3-carbonitrile]	8.49
O[C@H]1COC[C@H]1N1CCC(c2cc3nc(Nc4cnn(C5CC5)c4Cl)ncc3cc2Cl)CC1 (single isomer, unassigned) [Ex-4.104, (3S,4S) or (3R,4R) 4-(4-(6-chloro-2-((5-chloro-1-cyclopropyl-1H-pyrazol-4-yl)amino)quinazolin-7-yl)piperidin-1-yl)tetrahydrofuran-3-ol]	>9.20

Same assay, conditions: G2019S LRRK2, 134 μM ATP (Km ATP), mean values; read-out: LRRK2 pIC50 (converted)

SMILES	IC50 [nM]
CC(C)(O)Cn1ncc(Nc2ncc3cc(Cl)c(C4CCN(C5CCOC5)CC4)cc3n2)c1Cl (single isomer, unassigned) [Ex-4.77, (S) or (R) 1-[5-chloro-4-({6-chloro-7-[1-(oxolan-3-yl)piperidin-4-yl]quinazolin-2-yl}amino)-1H-pyrazol-1-yl]-2-methylpropan-2-ol]	1.82
CC(C)(O)Cn1ncc(Nc2ncc3cc(Cl)c(C4CCN(C5CCOC5)CC4)cc3n2)c1Cl (single isomer, unassigned) [Ex-4.79, (S) or (R) 1-[5-chloro-4-({6-chloro-7-[1-(oxolan-3-yl)piperidin-4-yl]quinazolin-2-yl}amino)-1H-pyrazol-1-yl]-2-methylpropan-2-ol]	< 0.631
Cc1nsc(Nc2ncc3cc(Cl)c([C@@H]4CCN(C5COC5)C[C@H]4F)cc3n2)c1Cl (single isomer, unassigned) [Ex-4.87, (3S,4S) or (3R,4R) 6-chloro-N-(4-chloro-3-methyl-1,2-thiazol-5-yl)-7-[3-fluoro-1-(oxetan-3-yl)piperidin-4-yl]quinazolin-2-amine]	12.6
Cc1nsc(Nc2ncc3cc(Cl)c([C@@H]4CCN(C5COC5)C[C@H]4F)cc3n2)c1Cl (single isomer, unassigned) [Ex-4.88, (3S,4S) or (3R,4R) 6-chloro-N-(4-chloro-3-methyl-1,2-thiazol-5-yl)-7-[3-fluoro-1-(oxetan-3-yl)piperidin-4-yl]quinazolin-2-amine]	3.8
